One data set relates to pslA::lacZ. The data set can be described thus: pslA::lacZ transcription fusion (β-galactosidase activity). Format: cell-based, Pseudomonas aeruginosa. As to conditions: FIG. 5. The protocol:
1% inoculation amount of overnight cultured Pseudomonas aeruginosa (pslA::lacZ mutant strain) were respectively inoculated in Jensen media with and without coumarin-chalcone compounds C1-C12, and incubated at 37° C. until OD600 reached to 0.5. Bacteria from 1.5 ml culture aliquots were resuspended in 200 μl Z-buffer and frozen/thawed three times to lyses bacteria. Cell lysates were assayed for both β-galactosidase activities as well as for total proteins by BCA assay (Pierce, USA). All β-galactosidase activity units were normalized by total protein per ml aliquot.
The units of β-galactosidase activity may be determined according to Equation (1) as follows: Miller units=1000×(OD420−1.7×OD550)/(t×V×OD600) (1) where t denotes a time (unit: min), V denotes the volume (unit: mL).
About 500 bp of DNA fragments upstream of ATG start codon of pslA gene were cloned into a polyclonal site of mini-CTX lacZ vector (note that the selected promoter fragment cannot affect the frameshift mutation). A recombinant plasmid (e.g., pTH2) was transferred into Escherichia coli S17-1λ pir. Then activated PAO1 was inoculated into 5 mL of LBNS medium, and S17-1/pTH2 strain was inoculated into 5 mL of LB medium with tetracycline (Tet) ([…]), and both cultured overnight at 37° C. with 200 rpm. […]

Data set [1] concerns c-di-GMP (PAO1/pCdrA::gfp (ASV)). The data set can be described thus: Intracellular c-di-GMP, indirect, pCdrA::gfp reporter. The class given is cell-based, Pseudomonas aeruginosa. As to conditions: FIG. 6. The text has this: (§1) The intracellular c-di-GMP may control the conversion of bacterial lifestyle between plankton and biofilm. In order to analyze an effect of the coumarin-chalcone compound C9 on a concentration of the intracellular c-di-GMP, direct and indirect methods were used to measure the level of c-di-GMP in Pseudomonas aeruginosa.
Since the transcription and expression of the extracellular protein CdrA was related to the intracellular concentration of cyclic diguanylic acid (c-di-GMP), PAO1/pCdrA::gfp^s (ASV) was used to analyze c-di-GMP level indirectly.

Another data set concerns intracellular c-di-GMP. The data set can be described thus: Intracellular c-di-GMP, direct, LC-MS/MS quantification. The conditions noted are these: FIG. 7. Format: cell-based, Pseudomonas aeruginosa.
Excerpt: as §1
C-di-GMP was directly extracted from PAO1 strain grown with or without the coumarin-chalcone compound C9. The intracellular c-di-GMP was directly measured by LC-MS/MS quantification.

Another data set is described as follows: pKa by HCl/KOH titration. The conditions noted are these: titration with HCl (25 mM) and KOH (25 mM). Format: physicochemical. The protocol:
UV-Vis spectral analysis was used to study the stability of the coumarin-chalcone compound C9 at a pH range of 3.4 to 8.4. […] After reaching pH=2, KOH (25 mM) was added slowly until the pH reached 12. In this way, a graph of a relationship between the pH and the volume of KOH added was plotted to find an equivalent point and thus the pKa.

In data set [2] the test system is Staphylococcus aureus biofilm. The data set can be described thus: 96-well plate crystal violet biofilm detection. The class given is cell-based. As to conditions: FIG. 11. The method, then:
1% inoculation amount of the bacterial solution cultured overnight was inoculated into 100 μL Jensen liquid medium. Different equal amounts of bacteria solution with C1 to C12, respectively, or without any additional substance were cultured in a 96-well polyvinyl chloride (PVC) plate (costar) overnight at 30° C. without agitation.
The bacterial biomass adsorbed on the 96-well PVC plate was detected by a crystal violet method, and steps were described as below. (1) The non-attached bacteria were removed using a pipettor, then the wells were gently rinsed with normal saline for 3 times. (2) A volume of 120 μL 0.1% crystal violet solution was added to stain the firmly attached bacterial cells in each well, which then staying static at room temperature for 30 min. (3) The PVC plate was taken out, the crystal violet solution was removed with a pipettor, and the non-attached crystal violet solution was washed with normal saline. (4) The crystal violet attached onto the PVC plate was dissolved with 200 μL of 30% acetic acid solution. The OD value of the acetic acid solution in each well was measured at 560 nm with a spectrophotometer.
FIG. 11 is a schematic diagram illustrating an inhibiting effect of a coumarin-chalcone compound C9 on Staphylococcus aureus and Escherichia coli biofilms. […]

Data set [3] deals with Pseudomonas aeruginosa biofilm. The data set can be described thus: MBEC of antibiotics, Calgary biofilm device. The class given is cell-based. As to conditions: treated with C9 5 mM, versus untreated group. The protocol:
MIC and MBEC values of a biofilm formed on a peg of a […] biofilm device (CGM and CBD) treated with the coumarin-chalcone compound C9 were measured according to methods (Innovotech) in MBECTM high throughput experimental operation manual. Biofilm treated with the coumarin-chalcone compound C9 (5 mM) was cultured in an antibiotic-containing medium in a 96-well plate for 24 h, and the MIC value was obtained by measuring the OD600 of planktonic cells of the above samples. To determine the MBEC value, the biofilm treated with the coumarin-chalcone compound C9 (5 mM) was cultured in an antibiotic-containing medium in a 96-well plate for 24 h, then the biofilm was ultrasonically crushed and subsequently incubated at 37° C. for another 24 hours. Biomass of newly formed biofilms was recorded to indicate the corresponding MBEC value.

Take `COc1cccc(/C=C/C(=O)c2cc3ccccc3oc2=O)c1` [Compound C9]: the “production of Psl at the transcription level (pslA::lacZ)” value in the data set with pslA::lacZ was “affected the production of Psl at the transcription level”. Also, the “fluorescence intensity of PAO1/pCdrA::gfp (ASV)” value in data set [1] was “significantly reduced”. Besides, in the data set with intracellular c-di-GMP, the “reduction on the c-di-GMP concentration” value is given as 2 fold. For the same molecule, in “pKa by HCl/KOH titration”, the pKa was 5.66. For the same molecule, in data set [2], the “reduction of Staphylococcus aureus biofilm” value was found to be 30%. In data set [3], the “MBEC of a biofilm against ciprofloxacin” value was “significantly lower” and the “MBEC of a biofilm against tobramycin” value was “significantly lower”.
